Values after ≈ are worked out from the molar mass of the structure shown. Read-outs that look alike come from different tables or passages of the source.
Tests used:
Format in all cases: cell-based
[1] = tested on: L1210 mouse leukemia carcinoma cells; assay: cytotoxicity / inhibition of cell proliferation in L1210 leukemia cells; conditions: for IC90: L1210, read-out: IC90 (90% growth inhibitory concentration)
KB-3-1 = assay: killing of drug sensitive (non-MDR) KB-3-1 cells; conditions: Homo sapiens
KB-V1 = assay: killing of multidrug resistant KB-V1 cells; conditions: for IC50: Homo sapiens
[2] = tested on: A2780 human ovarian carcinoma; assay: cytotoxicity in A2780 human ovarian carcinoma cells
[3] = L1210, read-out: L1210 (IC50 μg/ml)
[4] = KB-3-1 drug sensitive cells, Table III, read-out: KB-3-1 (IC50; nM)
[5] = KB-V1 multidrug resistant cells, Table III, read-out: KB-V1 (IC50; nM)
[6] = ratio of IC50 KB-V1 to IC50 KB-3-1
[7] = L1210 leukemia, Table I, 50% inhibition of cell proliferation vs untreated control, read-out: L1210 (IC50 μg/ml)
[8] = KB 3-1, read-out: KB-3-1 (IC50; nM)
[9] = KB-V1, read-out: KB-V1 (IC50; nM)
[10] = Homo sapiens, A2780, read-out: A2780 (IC50 μg/ml)
[11] = A2780 human ovarian carcinoma, Table II, read-out: A2780 (IC50 μg/ml)

CC[Si](CC)(CC)O[C@H]1C[C@H]2OC[C@@]2(OC(C)=O)[C@H]2[C@H](OC(=O)c3ccccc3)[C@]3(O)CC(OC(=O)[C@H](O)[C@@H](NC(=O)OC(C)(C)C)c4ccccc4)=C(C)[C@H]([C@@H](OC(C)=O)C(=O)[C@]12C)C3(C)C [Compound 6, 7-TES-13-(N-Boc-β-phenylisoserinyl)-Δ^12,13-iso-baccatin III]
IC50 [1, 3]: > 0.1 µg/mL

CC(=O)O[C@H]1C(=O)[C@@]2(C)[C@H]([C@H](OC(=O)c3ccccc3)[C@]3(O)CC(OC(=O)[C@H](O)[C@@H](NC(=O)OC(C)(C)C)c4ccccc4)=C(C)[C@H]1C3(C)C)[C@]1(OC(C)=O)CO[C@@H]1C[C@@H]2O [Compound 7, 13-(N-Boc-β-phenylisoserinyl)-Δ^12,13-iso-baccatin III]
IC50 (KB-3-1; [4]): 0.2 nM
IC50 (KB-V1; [5]): 40 nM
Ratio: KBV-1/KB-3-1 (KB-V1; [6]): 228
IC50 [1, 7]: 0.0046 µg/mL (≈ 5.41 nM)

CC(=O)O[C@@]12CO[C@@H]1C[C@H](O)[C@@]1(C)C(=O)[C@H](O)[C@H]3C(C)=C(OC(=O)[C@H](O)[C@@H](NC(=O)OC(C)(C)C)c4ccccc4)C[C@@](O)([C@@H](OC(=O)c4ccccc4)[C@H]21)C3(C)C [Compound 8, 10-deacetyl-13-(N-Boc-β-phenylisoserinyl)-Δ^12,13-iso-baccatin III]
IC50 [1, 7]: 0.0059 µg/mL (≈ 7.3 nM)

CC(=O)O[C@H]1C(=O)[C@]2(C)[C@@H](OC(=O)OCC(Cl)(Cl)Cl)C[C@H]3OC[C@@]3(OC(C)=O)[C@H]2[C@H](OC(=O)c2ccccc2)[C@]2(O)CC(OC(=O)[C@H](O)[C@@H](NC(=O)OC(C)(C)C)c3ccccc3)=C(C)[C@H]1C2(C)C [Compound 12, 7-Troc-13-(N-Boc-β-phenylisoserinyl)-Δ^12,13-iso-baccatin III]
IC50 [1, 3]: 0.011 µg/mL (≈ 10.7 nM)

CC(=O)O[C@H]1C(=O)[C@]23C[C@H]2C[C@H]2OC[C@@]2(OC(C)=O)[C@H]3[C@H](OC(=O)c2ccccc2)[C@]2(O)CC(OC(=O)[C@H](OC(=O)OCC(Cl)(Cl)Cl)[C@@H](NC(=O)OC(C)(C)C)c3ccccc3)=C(C)[C@H]1C2(C)C [Compound 14, 2'-Troc-13-(N-Boc-β-phenylisoserinyl)-7-deoxy-7b,8b-methano-Δ^12,13-iso-baccatin III]
IC50 [1, 3]: 0.012 µg/mL (≈ 11.9 nM)

CC(=O)O[C@H]1C(=O)[C@]2(C)C=C[C@H]3OC[C@@]3(OC(C)=O)[C@H]2[C@H](OC(=O)c2ccccc2)[C@]2(O)CC(OC(=O)[C@H](OC(=O)OCC(Cl)(Cl)Cl)[C@@H](NC(=O)OC(C)(C)C)c3ccccc3)=C(C)[C@H]1C2(C)C [Compound 15, 2'-Troc-13-(N-Boc-β-phenylisoserinyl)-7-deoxy-Δ^6,7 -Δ^12,13-iso-baccatin III]
IC50 [1, 3]: 0.0066 µg/mL (≈ 6.55 nM)

CC(=O)O[C@H]1C(=O)[C@]2(C)C(F)C[C@H]3OC[C@@]3(OC(C)=O)[C@H]2[C@H](OC(=O)c2ccccc2)[C@]2(O)CC(OC(=O)[C@H](O)[C@@H](NC(=O)OC(C)(C)C)c3ccccc3)=C(C)[C@H]1C2(C)C (stereo partly drawn) [Compound 16, 13-(N-Boc-β-phenylisoserinyl)-7-deoxy-7-fluoro-Δ^12,13-iso-baccatin III]
IC50 [1, 3]: 0.0029 µg/mL (≈ 3.4 nM)

CC(=O)O[C@H]1C(=O)[C@]23C[C@H]2C[C@H]2OC[C@@]2(OC(C)=O)[C@H]3[C@H](OC(=O)c2ccccc2)[C@]2(O)CC(OC(=O)[C@H](O)[C@@H](NC(=O)OC(C)(C)C)c3ccccc3)=C(C)[C@H]1C2(C)C [Compound 17, 13-(N-Boc-β-phenylisoserinyl)-7-deoxy-7β,8β-methano-Δ^12,13-iso-baccatin III]
IC50 (KB-3-1; [8]): 0.22 nM
IC50 (KB-V1; [9]): 13 nM
Ratio: KBV-1/KB-3-1 (KB-V1; human, kb-v1 vs kb-3-1 cells): 61
IC90 [1]: 17 ng/mL (≈ 20.4 nM)
IC50 [1, 3]: 0.0018 µg/mL (≈ 2.16 nM)

CC(=O)O[C@H]1C(=O)[C@]2(C)C=C[C@H]3OC[C@@]3(OC(C)=O)[C@H]2[C@H](OC(=O)c2ccccc2)[C@]2(O)CC(OC(=O)[C@H](O)[C@@H](NC(=O)OC(C)(C)C)c3ccccc3)=C(C)[C@H]1C2(C)C [Compound 18, 13-(N-Boc-β-phenylisoserinyl)-7-deoxy-Δ^6,7 -Δ^12,13-iso-baccatin III]
IC50 (KB-3-1; [8]): 0.2 nM
IC50 (KB-V1; [9]): 6.2 nM
Ratio: KBV-1/KB-3-1 (KB-V1; human, kb-v1 vs kb-3-1 cells): 34
IC50 [1, 3]: 0.0022 µg/mL (≈ 2.64 nM)

CC[Si](CC)(CC)O[C@H]1C[C@H]2OC[C@@]2(OC(C)=O)[C@H]2[C@H](OC(=O)c3ccccc3)[C@]3(O)CC(OC(=O)[C@H](O)[C@@H](NC(=O)NC(C)(C)C)c4ccccc4)=C(C)[C@H]([C@@H](OC(C)=O)C(=O)[C@]12C)C3(C)C [Compound 32a, 7-TES-13-(N-(t-butylaminocarbonyl)-β-phenylisoserinyl)-Δ^12,13-iso-baccatin III]
IC50 [1, 3]: 0.07 µg/mL (≈ 72.7 nM)

CC(=O)O[C@H]1C(=O)[C@@]2(C)[C@H]([C@H](OC(=O)c3ccccc3)[C@]3(O)CC(OC(=O)[C@H](O)[C@@H](NC(=O)NC(C)(C)C)c4ccccc4)=C(C)[C@H]1C3(C)C)[C@]1(OC(C)=O)CO[C@@H]1C[C@@H]2O [Compound 32b, 13-(N-(t-butylaminocarbonyl)-β-phenylisoserinyl)-Δ^12,13-iso-baccatin III]
IC50 (KB-3-1; [4]): 0.081 nM
IC50 (KB-V1; [5]): 1100 nM
Ratio: KBV-1/KB-3-1 (KB-V1; [6]): 17,650
IC50 [1, 7]: 0.0053 µg/mL (≈ 6.24 nM)

CC(=O)O[C@H]1C(=O)[C@]23C[C@H]2C[C@H]2OC[C@@]2(OC(C)=O)[C@H]3[C@H](OC(=O)c2ccccc2)[C@]2(O)CC(OC(=O)[C@H](O)[C@@H](NC(=O)NC(C)(C)C)c3ccccc3)=C(C)[C@H]1C2(C)C [Compound 36, 13-(N-(t-butylaminocarbonyl)-β-phenylisoserinyl)-7-deoxy-7β,8β-methano-Δ^12,13-iso-baccatin III]
IC50 (KB-3-1; [4]): 0.05 nM
IC50 (KB-V1; [5]): 360 nM
Ratio: KBV-1/KB-3-1 (KB-V1; [6]): 11,400

CC(=O)O[C@H]1C(=O)[C@]2(C)C=C[C@H]3OC[C@@]3(OC(C)=O)[C@H]2[C@H](OC(=O)c2ccccc2)[C@]2(O)CC(OC(=O)[C@H](O)[C@@H](NC(=O)NC(C)(C)C)c3ccccc3)=C(C)[C@H]1C2(C)C [Compound 38, 13-(N-(t-butylaminocarbonyl)-β-phenylisoserinyl)-7-deoxy-Δ^6,7 -Δ^12,13-iso-baccatin III]
IC50 (KB-3-1; [8]): 0.078 nM
IC50 (KB-V1; [9]): 360 nM
Ratio: KBV-1/KB-3-1 (KB-V1; human, kb-v1 vs kb-3-1 cells): 4,800

CCOCO[C@H]1C[C@H]2OC[C@@]2(OC(C)=O)[C@H]2[C@H](OC(=O)c3ccccc3)[C@]3(O)CC(OC(=O)[C@H](O)[C@@H](NC(=O)OC(C)(C)C)c4ccccc4)=C(C)[C@H]([C@@H](OC(C)=O)C(=O)[C@]12C)C3(C)C [Compound 41, 7-(O-ethoxymethyl)-13-(N-Boc-β-phenylisoserinyl)-Δ^12,13-iso-baccatin III]
IC50 (KB-3-1; [4]): 0.011 nM
IC50 (KB-V1; [5]): 0.77 nM
Ratio: KBV-1/KB-3-1 (KB-V1; [6]): 170
IC50 [1, 7]: 0.0007 µg/mL (≈ 0.771 nM)

CCOCO[C@H]1C[C@H]2OC[C@@]2(OC(C)=O)[C@H]2[C@H](OC(=O)c3ccccc3)[C@]3(O)CC(OC(=O)[C@H](O)[C@@H](NC(=O)NC(C)(C)C)c4ccccc4)=C(C)[C@H]([C@@H](OC(C)=O)C(=O)[C@]12C)C3(C)C [Compound 43, 7-(O-ethoxymethyl)-13-(N-(t-butylaminocarbonyl)-β-phenylisoserinyl)-Δ^12,13-iso-baccatin III]
IC50 (KB-V1; [5]): 120 nM
Ratio: KBV-1/KB-3-1 (KB-V1; [6]): 2.5 × 10^5
IC50 [1, 7]: 0.0014 µg/mL (≈ 1.54 nM)

COCO[C@H]1C[C@H]2OC[C@@]2(OC(C)=O)[C@H]2[C@H](OC(=O)c3ccccc3)[C@]3(O)CC(OC(=O)[C@H](O)[C@@H](NC(=O)OCc4ccccc4)c4ccccc4)=C(C)[C@H]([C@@H](OC(C)=O)C(=O)[C@]12C)C3(C)C [Compound 64, 7-(O-methoxymethyl)-13-(N-Cbz-β-phenylisoserinyl)-Δ^12,13-iso-baccatin III]
IC50 [2, 10]: 0.0029 µg/mL (≈ 3.13 nM)

COCO[C@H]1C[C@H]2OC[C@@]2(OC(C)=O)[C@H]2[C@H](OC(=O)c3ccccc3)[C@]3(O)CC(OC(=O)[C@H](O)[C@@H](NC(=O)OC(C)(C)C)c4ccccc4)=C(C)[C@H]([C@@H](OC(C)=O)C(=O)[C@]12C)C3(C)C [Compound 66, 7-(O-methoxymethyl)-13-(N-Boc-β-phenylisoserinyl)-Δ^12,13-iso-baccatin III]
IC50 (KB-V1; [5]): 0.046 nM
Ratio: KBV-1/KB-3-1 (KB-V1; [6]): 300
IC50 [2, 11]: 0.00026 µg/mL (≈ 0.291 nM)

COCO[C@H]1C[C@H]2OC[C@@]2(OC(C)=O)[C@H]2[C@H](OC(=O)c3ccccc3)[C@]3(O)CC(OC(=O)[C@H](O)[C@@H](NC(=O)NC(C)(C)C)c4ccccc4)=C(C)[C@H]([C@@H](OC(C)=O)C(=O)[C@]12C)C3(C)C [Compound 67, 7-(O-methoxymethyl)-13-(N-t-butylaminocarbonyl-β-phenylisoserinyl)-Δ^12,13-iso-baccatin III]
IC50 [2, 10]: 0.00042 µg/mL (≈ 0.47 nM)

CSCO[C@H]1C[C@H]2OC[C@@]2(OC(C)=O)[C@H]2[C@H](OC(=O)c3ccccc3)[C@]3(O)CC(OC(=O)[C@H](O)[C@@H](NC(=O)NC(C)(C)C)c4ccccc4)=C(C)[C@H]([C@@H](OC(C)=O)C(=O)[C@]12C)C3(C)C [Compound 72, 7-(O-methylthiomethyl)-13-(N-t-butylaminocarbonyl-β-phenylisoserinyl)-Δ^12,13-iso-baccatin III]
IC50 [2, 10]: 0.0004 µg/mL (≈ 0.44 nM)

CO[C@H]1C[C@H]2OC[C@@]2(OC(C)=O)[C@H]2[C@H](OC(=O)c3ccccc3)[C@]3(O)CC(OC(=O)[C@H](O)[C@@H](NC(=O)NC(C)(C)C)c4ccccc4)=C(C)[C@H]([C@@H](OC(C)=O)C(=O)[C@]12C)C3(C)C [Compound 73, 7-(O-methyl)-13-(N-t-butylaminocarbonyl-β-phenylisoserinyl)-Δ^12,13-iso-baccatin III]
IC50 [2, 11]: 0.00039 µg/mL (≈ 0.452 nM)

CC(=O)O[C@H]1C(=O)[C@@]2(C)[C@H]([C@H](OC(=O)c3ccccc3)[C@]3(O)C[C@H](OC(=O)[C@H](O)[C@@H](NC(=O)c4ccccc4)c4ccccc4)C(C)=C1C3(C)C)[C@]1(OC(C)=O)CO[C@@H]1C[C@@H]2O [taxol, reference compound]
IC50 (KB-3-1; [8]): 1.3 nM
IC50 (KB-V1; [9]): 15000 nM
Ratio: KBV-1/KB-3-1 (KB-V1; human, kb-v1 vs kb-3-1 cells): 11,538
average ratio (IC50 KB-V1/IC50 KB-3-1) (KB-V1; human, kb-v1 vs kb-3-1 cells): 7,570
IC90 [1]: 18 ng/mL (≈ 21.1 nM)
IC50 [1, 3]: 0.017 µg/mL (≈ 19.9 nM)
IC50 [2, 10]: 0.002 to 0.003 µg/mL (≈ 2.34 to 3.51 nM)

Reference: patent publication US5821363A, “Antineoplastic use and pharmaceutical compositions containing them” (priority 1996, dated 1998)
